# In patent US20240024488A1, “COMPOUNDS AND USES THEREOF” (Foghorn Therapeutics Inc., priority 2020, published 2024):
# Experiments:
# HiBit-BRM fusion protein = molecular target: T1, HiBit-BRM fusion protein (Homo sapiens, UniProt P51531); assay: HiBiT-BRM cell-based degradation assay (Nano-Glo HiBiT Lytic Detection, 24 h); conditions: HeLa cell line expressing HiBiT-BRM; for DC50: read-out: BRM HiBit Degradation IC50
# T1 construct: expressed in transfected cells
# Outline: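 HeLa cells stably expressing HiBiT-BRM were dosed with compounds (10-point 3-fold dilutions, 30 μM final top dose, duplicate) for 24 h. HiBiT signal was read by lytic LgBiT complementation luminescence. Percent degradation was normalised to DMSO (high control) and 2 μM of a reference BRM/BRG1 degrader (low control).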
# [1] = molecular target: T2, HiBit-BRG1 fusion protein (Homo sapiens, UniProt P51532); assay: HiBiT-BRG1 cell-based degradation assay (Nano-Glo HiBiT Lytic Detection, 24 h); conditions: HeLa cell line expressing HiBit-BRG1 and LgBit; for Dmax: read-out: BRG1 HiBit Degradation Maximum (%); for DC50: read-out: BRMG1 HiBit Degradation IC50
# T2 construct: expressed in transfected cells
# Outline: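 Seed 5000 HeLa HiBit-BRG1/LgBit cells per well; treat 24 h; equilibrate 15 min at room temperature; add Nano-Glo HiBiT lytic reagent, shake 10 min, read luminescence. Percent degradation is scaled between DMSO and 2 μM reference degrader wells.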
# T2 sequence (P51532 whole entry, the tested form may be a part): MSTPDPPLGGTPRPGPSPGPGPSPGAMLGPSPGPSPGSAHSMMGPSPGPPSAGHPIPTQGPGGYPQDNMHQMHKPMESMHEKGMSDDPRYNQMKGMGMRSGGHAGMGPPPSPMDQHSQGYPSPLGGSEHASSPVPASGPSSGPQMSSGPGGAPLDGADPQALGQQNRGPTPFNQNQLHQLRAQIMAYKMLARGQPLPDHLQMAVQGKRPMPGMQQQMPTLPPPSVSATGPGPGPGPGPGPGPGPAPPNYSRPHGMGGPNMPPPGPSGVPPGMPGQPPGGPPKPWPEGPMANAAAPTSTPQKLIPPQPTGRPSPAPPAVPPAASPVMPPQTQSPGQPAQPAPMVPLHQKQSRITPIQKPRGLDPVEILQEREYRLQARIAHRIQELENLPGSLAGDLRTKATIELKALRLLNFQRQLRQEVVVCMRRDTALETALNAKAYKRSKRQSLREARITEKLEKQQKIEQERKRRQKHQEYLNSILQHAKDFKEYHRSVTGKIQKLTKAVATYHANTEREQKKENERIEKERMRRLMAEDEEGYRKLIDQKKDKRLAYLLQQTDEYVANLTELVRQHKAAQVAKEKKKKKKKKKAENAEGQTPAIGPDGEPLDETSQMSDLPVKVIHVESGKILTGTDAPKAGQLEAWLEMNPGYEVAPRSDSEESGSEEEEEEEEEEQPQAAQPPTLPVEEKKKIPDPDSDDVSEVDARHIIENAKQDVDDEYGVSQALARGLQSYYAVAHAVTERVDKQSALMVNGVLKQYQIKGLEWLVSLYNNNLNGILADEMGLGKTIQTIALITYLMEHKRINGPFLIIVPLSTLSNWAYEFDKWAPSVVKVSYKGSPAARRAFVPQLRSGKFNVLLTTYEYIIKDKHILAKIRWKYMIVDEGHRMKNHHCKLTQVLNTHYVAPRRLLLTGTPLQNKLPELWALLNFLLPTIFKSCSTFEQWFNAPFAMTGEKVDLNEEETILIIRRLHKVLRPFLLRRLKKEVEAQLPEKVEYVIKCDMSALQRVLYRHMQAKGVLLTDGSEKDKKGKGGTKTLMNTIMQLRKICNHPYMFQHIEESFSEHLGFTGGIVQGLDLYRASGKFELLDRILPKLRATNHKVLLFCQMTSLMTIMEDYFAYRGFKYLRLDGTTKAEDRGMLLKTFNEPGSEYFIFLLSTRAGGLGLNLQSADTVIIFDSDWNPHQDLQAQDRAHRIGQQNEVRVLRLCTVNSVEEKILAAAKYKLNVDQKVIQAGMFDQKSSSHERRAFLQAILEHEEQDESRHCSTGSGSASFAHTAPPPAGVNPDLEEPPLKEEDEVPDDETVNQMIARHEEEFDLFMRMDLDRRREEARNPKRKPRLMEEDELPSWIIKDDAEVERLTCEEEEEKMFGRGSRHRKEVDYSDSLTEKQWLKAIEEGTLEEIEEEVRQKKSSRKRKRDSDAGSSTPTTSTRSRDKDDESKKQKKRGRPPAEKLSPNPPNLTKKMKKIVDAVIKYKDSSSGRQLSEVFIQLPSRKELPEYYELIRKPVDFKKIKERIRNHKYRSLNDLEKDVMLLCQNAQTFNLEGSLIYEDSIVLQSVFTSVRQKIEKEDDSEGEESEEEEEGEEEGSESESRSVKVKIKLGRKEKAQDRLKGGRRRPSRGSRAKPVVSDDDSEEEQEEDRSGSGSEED
# T1 sequence (P51531 whole entry, the tested form may be a part): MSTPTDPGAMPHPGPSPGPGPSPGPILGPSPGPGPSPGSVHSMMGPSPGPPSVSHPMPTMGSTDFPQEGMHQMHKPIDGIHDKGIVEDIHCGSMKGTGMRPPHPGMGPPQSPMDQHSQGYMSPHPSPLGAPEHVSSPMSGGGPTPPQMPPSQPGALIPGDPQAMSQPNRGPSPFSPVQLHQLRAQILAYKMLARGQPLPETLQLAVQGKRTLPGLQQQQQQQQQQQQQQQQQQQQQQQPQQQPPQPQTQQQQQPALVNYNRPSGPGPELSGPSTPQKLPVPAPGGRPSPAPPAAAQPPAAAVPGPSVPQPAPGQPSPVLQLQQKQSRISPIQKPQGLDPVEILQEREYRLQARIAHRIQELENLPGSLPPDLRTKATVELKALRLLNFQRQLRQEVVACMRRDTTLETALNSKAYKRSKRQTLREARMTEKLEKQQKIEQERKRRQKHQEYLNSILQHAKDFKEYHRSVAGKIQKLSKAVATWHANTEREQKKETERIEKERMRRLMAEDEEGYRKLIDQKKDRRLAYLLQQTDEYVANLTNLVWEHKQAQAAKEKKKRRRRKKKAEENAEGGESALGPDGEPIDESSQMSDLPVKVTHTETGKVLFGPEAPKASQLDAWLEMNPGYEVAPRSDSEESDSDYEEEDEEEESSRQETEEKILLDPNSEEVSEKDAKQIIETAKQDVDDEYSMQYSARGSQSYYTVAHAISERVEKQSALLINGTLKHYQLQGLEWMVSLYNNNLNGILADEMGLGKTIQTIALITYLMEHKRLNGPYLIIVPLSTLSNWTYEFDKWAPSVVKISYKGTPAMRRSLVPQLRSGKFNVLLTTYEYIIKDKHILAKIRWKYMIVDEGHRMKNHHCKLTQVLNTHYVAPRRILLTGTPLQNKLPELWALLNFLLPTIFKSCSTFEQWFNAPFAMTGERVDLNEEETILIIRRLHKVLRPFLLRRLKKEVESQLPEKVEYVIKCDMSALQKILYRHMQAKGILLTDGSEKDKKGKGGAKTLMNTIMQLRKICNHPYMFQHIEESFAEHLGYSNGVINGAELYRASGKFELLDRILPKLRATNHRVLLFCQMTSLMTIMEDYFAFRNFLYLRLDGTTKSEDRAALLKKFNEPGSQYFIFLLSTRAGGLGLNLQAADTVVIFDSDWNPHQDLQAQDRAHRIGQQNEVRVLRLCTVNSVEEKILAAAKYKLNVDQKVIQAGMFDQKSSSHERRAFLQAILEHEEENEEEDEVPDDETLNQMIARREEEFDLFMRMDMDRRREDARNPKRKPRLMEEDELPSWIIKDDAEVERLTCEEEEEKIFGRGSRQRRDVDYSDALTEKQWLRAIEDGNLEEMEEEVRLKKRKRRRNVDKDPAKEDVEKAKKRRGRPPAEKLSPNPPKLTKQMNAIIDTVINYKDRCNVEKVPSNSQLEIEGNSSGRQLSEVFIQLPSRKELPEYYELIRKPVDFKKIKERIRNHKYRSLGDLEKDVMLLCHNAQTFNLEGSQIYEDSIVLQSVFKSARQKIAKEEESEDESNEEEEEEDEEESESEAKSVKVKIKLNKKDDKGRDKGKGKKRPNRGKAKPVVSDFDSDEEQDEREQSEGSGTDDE
SMILES,DC50 (HiBit-BRM fusion protein) [nM],Dmax [1] [%],DC50 [1] [nM],BRM HiBit Degradation Maximum (%) (HiBit-BRM fusion protein)
"Cc1ncsc1-c1ccc(CNC(=O)[C@@H]2C[C@@H](O)CN2C(=O)[C@@H](NC(=O)CCCC(=O)N2CC(c3cc4cc(-c5ccccc5O)nnc4[nH]3)C2)C(C)(C)C)cc1 [Compound 6, (2S,4R)-4-hydroxy-1-((S)-2-(5-(3-(3-(2-hydroxyphenyl)-7H-pyrrolo[2,3-c]pyridazin-6-yl)azetidin-1-yl)-5-oxopentanamido)-3,3-dimethylbutanoyl)-N-(4-(4-methylthiazol-5-yl)benzyl)pyrrolidine-2-carboxamide]",> 1000,> 75,> 1000,B (“B” indicates maximum degradation ≥ 50%)
"O=C1CCC(N2C(=O)c3cccc(OCCCCC(=O)N4CC(c5cc6cc(-c7ccccc7O)nnc6[nH]5)C4)c3C2=O)C(=O)N1 (centres unmarked) [Compound 7, 2-(2,6-dioxopiperidin-3-yl)-4-((5-(3-(3-(2-hydroxyphenyl)-7H-pyrrolo[2,3-c]pyridazin-6-yl)azetidin-1-yl)-5-oxopentyl)oxy)isoindoline-1,3-dione]",> 1000,> 50,> 1000,B (“B” indicates maximum degradation ≥ 50%)
"O=C1CCC(N2C(=O)c3cccc(OCCCC(=O)N4CC(c5cc6cc(-c7ccccc7O)nnc6[nH]5)C4)c3C2=O)C(=O)N1 (centres unmarked) [Compound 8, 2-(2,6-dioxopiperidin-3-yl)-4-(4-(3-(3-(2-hydroxyphenyl)-7H-pyrrolo[2,3-c]pyridazin-6-yl)azetidin-1-yl)-4-oxobutoxy)isoindoline-1,3-dione]",> 1000,> 75,> 1000,A (“A” indicates maximum degradation ≥ 75%)
"O=C1CCC(N2C(=O)c3ccc(NCCCCCCCCC(=O)N4CC(c5cc6cc(-c7ccccc7O)nnc6[nH]5)C4)cc3C2=O)C(=O)N1 (centres unmarked) [Compound 9, 2-(2,6-dioxopiperidin-3-yl)-5-((9-(3-(3-(2-hydroxyphenyl)-7H-pyrrolo[2,3-c]pyridazin-6-yl)azetidin-1-yl)-9-oxononyl)amino) isoindoline-1,3-dione]",> 1000,< 50,–,B (“B” indicates maximum degradation ≥ 50%)
"Cc1ncsc1-c1ccc(CNC(=O)[C@@H]2C[C@@H](O)CN2C(=O)[C@@H](NC(=O)CCCCCCCC(=O)N2CC(c3cc4cc(-c5ccccc5O)nnc4[nH]3)C2)C(C)(C)C)cc1 [Compound 10, (2S,4R)-4-hydroxy-1-((S)-2-(9-(3-(3-(2-hydroxyphenyl)-7H-pyrrolo[2,3-c]pyridazin-6-yl)azetidin-1-yl)-9-oxononanamido)-3,3-dimethylbutanoyl)-N-(4-(4-methylthiazol-5-yl)benzyl)pyrrolidine-2-carboxamide]",> 1000,< 50,–,B (“B” indicates maximum degradation ≥ 50%)
"Cc1ncsc1-c1ccc(CNC(=O)[C@@H]2C[C@@H](O)CN2C(=O)[C@@H](NC(=O)CCN2CC(c3cc4cc(-c5ccccc5O)nnc4[nH]3)C2)C(C)(C)C)cc1 [Compound 16, (2S,4R)-4-hydroxy-1-((S)-2-(3-(3-(3-(2-hydroxyphenyl)-7H-pyrrolo[2,3-c]pyridazin-6-yl)azetidin-1-yl)propanamido)-3,3-dimethylbutanoyl)-N-(4-(4-methylthiazol-5-yl)benzyl)pyrrolidine-2-carboxamide]",–,< 50,–,C (“C” indicates maximum degradation < 50%)
"Cc1ncsc1-c1ccc(CNC(=O)[C@@H]2C[C@@H](O)CN2C(=O)[C@@H](NC(=O)CCCCC(=O)N2CC(c3cc4cc(-c5ccccc5O)nnc4[nH]3)C2)C(C)(C)C)cc1 [Compound 18, (2S,4R)-4-hydroxy-1-((S)-2-(6-(3-(3-(2-hydroxyphenyl)-7H-pyrrolo[2,3-c]pyridazin-6-yl)azetidin-1-yl)-6-oxohexanamido)-3,3-dimethylbutanoyl)-N-(4-(4-methylthiazol-5-yl)benzyl)pyrrolidine-2-carboxamide]",–,< 50,–,C (“C” indicates maximum degradation < 50%)
"Cc1ncsc1-c1ccc(CNC(=O)[C@@H]2C[C@@H](O)CN2C(=O)[C@@H](NC(=O)CCCCCCCCCCCCCCCCC(=O)N2CC(c3cc4cc(-c5ccccc5O)nnc4[nH]3)C2)C(C)(C)C)cc1 [Compound 19, (2S,4R)-4-hydroxy-1-((S)-2-(18-(3-(3-(2-hydroxyphenyl)-7H-pyrrolo[2,3-c]pyridazin-6-yl)azetidin-1-yl)-18-oxooctadecanamido)-3,3-dimethylbutanoyl)-N-(4-(4-methylthiazol-5-yl)benzyl)pyrrolidine-2-carboxamide]",–,< 50,–,C (“C” indicates maximum degradation < 50%)
"Cc1ncsc1-c1ccc(CNC(=O)[C@@H]2C[C@@H](O)CN2C(=O)[C@@H](NC(=O)CCCCCCCCCCCCCCC(=O)N2CC(c3cc4cc(-c5ccccc5O)nnc4[nH]3)C2)C(C)(C)C)cc1 [Compound 21, (2S,4R)-4-hydroxy-1-((S)-2-(16-(3-(3-(2-hydroxyphenyl)-7H-pyrrolo[2,3-c]pyridazin-6-yl)azetidin-1-yl)-16-oxohexadecanamido)-3,3-dimethylbutanoyl)-N-(4-(4-methylthiazol-5-yl)benzyl)pyrrolidine-2-carboxamide]",–,< 50,–,C (“C” indicates maximum degradation < 50%)
"Cc1ncsc1-c1ccc(CNC(=O)[C@@H]2C[C@@H](O)CN2C(=O)[C@@H](NC(=O)CCCCCCCCCCCCCCCC(=O)N2CC(c3cc4cc(-c5ccccc5O)nnc4[nH]3)C2)C(C)(C)C)cc1 [Compound 22, (2S,4R)-4-hydroxy-1-((S)-2-(17-(3-(3-(2-hydroxyphenyl)-7H-pyrrolo[2,3-c]pyridazin-6-yl)azetidin-1-yl)-17-oxoheptadecanamido)-3,3-dimethylbutanoyl)-N-(4-(4-methylthiazol-5-yl)benzyl)pyrrolidine-2-carboxamide]",–,< 50,–,C (“C” indicates maximum degradation < 50%)

# Second part, led by results:
DC50 (HiBit-BRM fusion protein) [nM],Dmax [1] [%],DC50 [1] [nM],SMILES,BRM HiBit Degradation Maximum (%) (HiBit-BRM fusion protein)
> 100,< 50,–,"Cc1ncsc1-c1ccc([C@H](C)NC(=O)[C@@H]2C[C@@H](O)CN2C(=O)[C@@H](NC(=O)CCCCCCCCCCCCCC(=O)N2CC(c3cc4cc(-c5ccccc5O)nnc4[nH]3)C2)C(C)(C)C)cc1 [Compound 11, (2S,4R)-4-hydroxy-1-((S)-2-(15-(3-(3-(2-hydroxyphenyl)-7H-pyrrolo[2,3-c]pyridazin-6-yl)azetidin-1-yl)-15-oxopentadecanamido)-3,3-dimethylbutanoyl)-N-((S)-1-(4-(4-methylthiazol-5-yl)phenyl)ethyl)pyrrolidine-2-carboxamide]",B (“B” indicates maximum degradation ≥ 50%)
> 100,< 50,–,"Cc1ncsc1-c1ccc([C@H](C)NC(=O)[C@@H]2C[C@@H](O)CN2C(=O)[C@@H](NC(=O)CCCCCCCCCCCCC(=O)N2CC(c3cc4cc(-c5ccccc5O)nnc4[nH]3)C2)C(C)(C)C)cc1 [Compound 12, (2S,4R)-4-hydroxy-1-((S)-2-(14-(3-(3-(2-hydroxyphenyl)-7H-pyrrolo[2,3-c]pyridazin-6-yl)azetidin-1-yl)-14-oxotetradecanamido)-3,3-dimethylbutanoyl)-N-((S)-1-(4-(4-methylthiazol-5-yl)phenyl)ethyl)pyrrolidine-2-carboxamide]",A (“A” indicates maximum degradation ≥ 75%)
> 100,< 50,–,"Cc1ncsc1-c1ccc([C@H](C)NC(=O)[C@@H]2C[C@@H](O)CN2C(=O)[C@@H](NC(=O)CCCCCCCCCCC(=O)N2CC(c3cc4cc(-c5ccccc5O)nnc4[nH]3)C2)C(C)(C)C)cc1 [Compound 13, (2S,4R)-4-hydroxy-1-((S)-2-(12-(3-(3-(2-hydroxyphenyl)-7H-pyrrolo[2,3-c]pyridazin-6-yl)azetidin-1-yl)-12-oxododecanamido)-3,3-dimethylbutanoyl)-N-((S)-1-(4-(4-methylthiazol-5-yl)phenyl)ethyl)pyrrolidine-2-carboxamide]",A (“A” indicates maximum degradation ≥ 75%)
–,< 50,–,"Cc1ncsc1-c1ccc(CNC(=O)[C@@H]2C[C@@H](O)CN2C(=O)[C@@H](NC(=O)CCCCCCCCCCCCC(=O)N2CC(c3cc4cc(-c5ccccc5O)nnc4[nH]3)C2)C(C)(C)C)cc1 [Compound 17, (2S,4R)-4-hydroxy-1-((S)-2-(14-(3-(3-(2-hydroxyphenyl)-7H-pyrrolo[2,3-c]pyridazin-6-yl)azetidin-1-yl)-14-oxotetradecanamido)-3,3-dimethylbutanoyl)-N-(4-(4-methylthiazol-5-yl)benzyl)pyrrolidine-2-carboxamide]",C (“C” indicates maximum degradation < 50%)
–,< 50,–,"Cc1ncsc1-c1ccc(CNC(=O)[C@@H]2C[C@@H](O)CN2C(=O)[C@@H](NC(=O)CCCCCCCCCCCCCC(=O)N2CC(c3cc4cc(-c5ccccc5O)nnc4[nH]3)C2)C(C)(C)C)cc1 [Compound 20, (2S,4R)-4-hydroxy-1-((S)-2-(15-(3-(3-(2-hydroxyphenyl)-7H-pyrrolo[2,3-c]pyridazin-6-yl)azetidin-1-yl)-15-oxopentadecanamido)-3,3-dimethylbutanoyl)-N-(4-(4-methylthiazol-5-yl)benzyl)pyrrolidine-2-carboxamide]",C (“C” indicates maximum degradation < 50%)
